The record followed here is US8980906B2, “Pyridonemorphinan analogs and biological activity on opioid receptors” (Purdue Pharma L.P., priority 2012, dated 2015).

Assay [1] has as its target T1, δ-opioid receptor (Homo sapiens (Human), UniProt P41143). Briefly: δ-opioid receptor radioligand dose-displacement binding assay ([3H]-Naltrindole). As to conditions: binding affinity, [3H]-Naltrindole displacement. As to the method:
δ-Opioid Receptor Binding Assay Procedures: δ-Opioid Receptor Binding Assay Procedures were conducted as follows. Radioligand dose-displacement assays used 0.2 nM [^3H]-Naltrindole (Perkin Elmer, Shelton, Conn.; 33.0 Ci/mmole) with 5 μg membrane protein (Perkin Elmer, Shelton, Conn.) in a final volume of 500 μl binding buffer (5 mM MgCl2, 5% DMSO, 50 mM Trizma base, pH 7.4). Non-specific binding was determined in the presence of 25 μM unlabeled naloxone. All reactions were performed in 96-deep well polypropylene plates for 1 hour at a temperature of about 25° C. Binding reactions were terminated by rapid filtration onto 96-well Unifilter GF/C filter plates (Perkin Elmer, Shelton, Conn.) presoaked in 0.5% polyethylenimine (Sigma). Harvesting was performed using a 96-well tissue harvester (Perkin Elmer, Shelton, Conn.) followed by five filtration washes with 500 μl ice-cold binding buffer. Filter plates were subsequently dried at 50° C. for 1-2 hours. Fifty μl/well scintillation cocktail (Perkin Elmer, Shelton, Conn.) was added and plates were counted in a Packard Top-Count for 1 min/well.

The next assay addresses κ-opioid receptor (Homo sapiens (Human), UniProt P41145). Briefly: κ-opioid receptor [35S]GTPγS functional assay, HEK-293 or CHO cells. The assay is classed as biochemical. As to conditions: for Emax: relative to U69,593, HEK-293 or CHO cells.
Assay [2] deals with T1, δ-opioid receptor. Briefly: δ-opioid receptor [35S]GTPγS functional assay, HEK-293 or CHO cells. The assay is classed as biochemical. On the procedure:
δ-Opioid Receptor Functional Assay Procedures: Functional [^35S]GTPγS binding assays were conducted as follows. δ-Opioid receptor membrane solution was prepared by sequentially adding final concentrations of 0.026 μg/μl δ membrane protein (Perkin Elmer, Shelton, Conn.), 10 μg/mL saponin, 3 μM GDP and 0.20 nM [^35S]GTPγS to binding buffer (100 mM NaCl, 10 mM MgCl2, 20 mM HEPES, pH 7.4) on ice. The prepared membrane solution (190 μl/well) was transferred to 96-shallow well polypropylene plates containing 10 μl of 20× concentrated stock solutions of agonist prepared in DMSO. Plates were incubated for 30 min at a temperature of about 25° C. with shaking. Reactions were terminated by rapid filtration onto 96-well Unifilter GF/B filter plates (Perkin Elmer, Shelton, Conn.) using a 96-well tissue harvester (Packard) and followed by three filtration washes with 200 μl ice-cold binding buffer (10 mM NaH2PO4, 10 mM Na2HPO4, pH 7.4). Filter plates were subsequently dried at 50° C. for 1-2 hours. Fifty μl/well scintillation cocktail (Perkin Elmer, Shelton, Conn.) was added and plates were counted in a Packard Top-count for 1 min/well.
δ-Opioid Receptor Functional Data: δ GTP EC50 is the concentration of a compound providing 50% of the maximal response for the compound at a δ receptor.
δ GTP Emax (%) is the maximal effect elicited by a compound relative to the effect elicited by met-enkephalin.
In TABLE 2, activity response of certain Compounds of the Invention to the μ-, δ- and κ-opioid receptors was determined as described above for functional assays using HEK-293 or CHO cells.

A further assay deals with ORL-1 receptor (Homo sapiens (Human), UniProt P41146). Briefly: ORL-1 receptor radioligand binding assay ([3H]-nociceptin). As to conditions: binding affinity, [3H]-nociceptin displacement. On the procedure: ORL-1 Receptor Binding Assay Procedure: Membranes from recombinant HEK-293 cells expressing the human opioid receptor-like receptor (ORL-1) (Perkin Elmer, Shelton, Conn.) were prepared by lysing cells in ice-cold hypotonic buffer (2.5 mM MgCl2, 50 mM HEPES, pH 7.4) (10 ml/10 cm dish) followed by homogenization with a tissue grinder/Teflon pestle. Membranes were collected by centrifugation at 30,000×g for […] at 4° C. and pellets resuspended in hypotonic buffer to a final concentration of 1-3 mg/ml. Protein concentrations were determined using the BioRad protein assay reagent with bovine serum albumen as standard. Aliquots of the ORL-1 receptor membranes were stored at −80° C.
Radioligand binding assays (screening and dose-displacement) used 0.1 nM [^3H]-nociceptin (Perkin Elmer, Shelton, Conn.; 87.7 Ci/mmole) with 12 μg membrane protein in a final volume of 500 μl binding buffer (10 mM MgCl2, 1 mM EDTA, 5% DMSO, 50 mM HEPES, pH 7.4). Non-specific binding was determined in the presence of […] unlabeled nociceptin (American Peptide Company). All reactions were performed in 96-deep well polypropylene plates for 1 h at room temperature. Binding reactions were terminated by rapid filtration onto 96-well Unifilter GF/C filter plates (Perkin Elmer, Shelton, Conn.) presoaked in 0.5% polyethylenimine (Sigma). Harvesting was performed using a 96-well tissue harvester (Perkin Elmer, Shelton, Conn.) followed by three filtration washes with 500 μl ice-cold binding buffer. Filter plates were subsequently dried at 50° C. for 2-3 hours. Fifty μl/well scintillation cocktail (Perkin Elmer, Shelton, Conn.) was added and plates were counted in a Packard Top-Count for 1 min/well. The data from screening and dose-displacement experiments were analyzed using Microsoft Excel and the curve fitting functions in GraphPad PRISM™, v. 3.0 or higher, respectively, or an in-house function for one-site competition curve-fitting.

T1 sequence (P41143 whole entry, looked up): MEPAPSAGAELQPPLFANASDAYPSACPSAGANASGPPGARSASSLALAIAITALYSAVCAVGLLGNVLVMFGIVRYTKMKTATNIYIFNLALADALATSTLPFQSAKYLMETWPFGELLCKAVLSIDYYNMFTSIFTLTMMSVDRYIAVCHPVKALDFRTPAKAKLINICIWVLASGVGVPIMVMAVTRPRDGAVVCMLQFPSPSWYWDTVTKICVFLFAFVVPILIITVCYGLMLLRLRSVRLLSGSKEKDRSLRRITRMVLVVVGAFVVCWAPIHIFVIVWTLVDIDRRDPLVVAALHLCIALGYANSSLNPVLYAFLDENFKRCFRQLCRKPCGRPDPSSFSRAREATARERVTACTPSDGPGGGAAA

On to `NC(=O)c1cc2c([nH]c1=O)C[C@]13CCN(CC4CC4)[C@H](Cc4ccc(O)cc41)[C@]3(O)C2` [Compound 5, (6R,6aS,12aR)-15-(cyclopropylmethyl)-2,6a-dihydroxy-10-oxo-6,6a,7,10,11,12-hexahydro-5H-6,12a-(epiminoethano)naphtho[2,1-g]quinoline-9-carboxamide], for which the Ki on δ-opioid receptor [1] was 26.4 ± 7.23 nM; at ORL-1 receptor, 1330 ± 310 nM. For the same compound, the EC50 at κ-opioid receptor is 4.37 ± 1.11 nM; at δ-opioid receptor [2], greater than 20000 nM. The same compound came in with an Emax on κ-opioid receptor of 10.2 ± 1.18%.

Turning to `O=C(O)c1cc2c([nH]c1=O)C[C@]13CCN(CC4CC4)[C@H](Cc4ccc(O)cc41)[C@]3(O)C2` [Compound 9, (6R,6aS,12aR)-15-(cyclopropylmethyl)-2,6a-dihydroxy-10-oxo-6,6a,7,10,11,12-hexahydro-5H-6,12a-(epiminoethano)naphtho[2,1-g]quinoline-9-carboxylic acid], the figures for the Ki at δ-opioid receptor [1] and at ORL-1 receptor were 18.5 ± 2.14 nM and 2320 ± 320 nM, respectively. Also, the EC50 on κ-opioid receptor and at δ-opioid receptor [2] was greater than 20000 nM in each case. This compound returned an Emax at κ-opioid receptor of 2.33 ± 1.33%.

With `O=C(O)c1cc2c([nH]c1=O)C[C@]13CCN(CC4CC4)[C@H](Cc4ccc(O)cc41)[C@@H]3C2` [Compound 11, (6R,6aR,12aS)-15-(cyclopropylmethyl)-2-hydroxy-10-oxo-6,6a,7,10,11,12-hexahydro-5H-6,12a-(epiminoethano)naphtho[2,1-g]quinoline-9-carboxylic acid], the results for the concentration for a half-maximal effect (EC50) at κ-opioid receptor and on δ-opioid receptor [2] were 1.4 ± 0.56 nM and 3.53 ± 1.5 nM, respectively. The maximum response (Emax) amounted to 19 ± 1.53% on κ-opioid receptor and 36 ± 3.21% at δ-opioid receptor [2] (relative to met-enkephalin, HEK-293 or CHO cells). This compound had a Ki on ORL-1 receptor of 4.91 ± 0.82 nM.

What is called Ki is a dissociation constant, usually derived from enzyme kinetics or from competition with a known ligand. Read a low Ki as a stronger hold on the target. As usually defined, the EC50 is the concentration needed to bring the measured effect to its halfway point. High values mean weaker potency, low ones greater potency. As usually defined, the Emax is the maximal effect, on the per cent scale that the assay sets.
